Measurements published in US12691070B2, “Cationic lipids and preparation method thereof” (RiboX Therapeutics HK Limited, priority 2023, dated 2026).

Assays:
[1] = LNP size and polydispersity index (PDI) by dynamic light scattering; format: physicochemical; details: LNP with cirRNA (SEQ ID NO: 1); for Size: in nm (unit assumed)
Outline: (§1)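 Ribogreen fluorescence with and without Triton X-100 gave encapsulation as 100% − (intact/lysed) signal; DLS size, PDI and zeta potential measured on a Zetasizer. Particles: 50:10:38.5:1.5 lipid mix, luciferase circRNA or mRNA, lipid:nucleotide 15 or 6, microfluidic assembly at pH 4.5, PBS-dialyzed.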

[2] = LNP zeta potential (Zetasizer); format: physicochemical; details: LNP with cirRNA (SEQ ID NO: 1)
Outline: as §1

[3] = RNA encapsulation efficacy by Quant-IT Ribogreen kit; format: physicochemical; details: LNP with cirRNA (SEQ ID NO: 1)
Outline: as §1

Hep G2 cells [4] = experiment: In vitro expression of firefly-luciferase, Hep G2; format: cell-based; details: cirRNA (SEQ ID NO: 1) LNPs; firefly-luciferase luminescence; Hep G2 cells
Outline: (§2)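 Luminescence from cell lysates reports expression: luciferase activity was measured 72 h after transfection with 100 ng/mL RNA-LNPs encoding firefly luciferase.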

RAW 264.7 cells [5] = experiment: In vitro expression of firefly-luciferase, RAW 264.7; format: cell-based; details: cirRNA (SEQ ID NO: 1) LNPs; firefly-luciferase luminescence; RAW 264.7 cells
Outline: as §2

Hep G2 cells [6] = experiment: In vitro toxicity (CellTiter-Glo cell viability), Hep G2; format: cell-based; details: cirRNA (SEQ ID NO: 1) LNPs; Hep G2 cells;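 also: percent of untreated cells luminescence signal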
Outline: (§3)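 Viability after a 72 h incubation with 1 μg/mL RNA-LNP formulations was assessed luminometrically using CellTiter-Glo.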

RAW 264.7 cells [7] = experiment: In vitro toxicity (CellTiter-Glo cell viability), RAW 264.7; format: cell-based; details: cirRNA (SEQ ID NO: 1) LNPs; RAW 264.7 cells;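 also: percent of untreated cells luminescence signal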
Outline: as §3

BALB/C mice = experiment: In vivo expression, whole-body luminescence (IVIS); details: cirRNA (SEQ ID NO: 1) LNPs, BALB/C mice
Method: 6-8 week old, female BALB/C mice were injected with 0.05 mg*kg-1 of RNA-LNPs encoding for firefly-luciferase by intravenous injection. At 6 hours post injection, animals were intraperitoneally injected with 15 mg/ml of Luciferin substrate and whole-body luminescence was determined by a bioluminescent in vivo imaging system (IVIS).

SMILES | PDI [1] | Size [1] | Zeta (mV) [2] | Encapsulation Efficiency % [3] | In vitro Expression HepG2 (Hep G2 cells [4]) | In vitro Expression RAW (RAW 264.7 cells [5]) | In vitro Viability HepG2 (Hep G2 cells [6]) | In vitro Viability RAW (RAW 264.7 cells [7]) | In vivo Expression (Whole Body) (BALB/C mice)
CCCCCCCCCCCOC(=O)CCCCCN(CCCCCCCC(=O)OC(CCCCCCCC)CCCCCCCC)CCOC(=O)NCCN(C)C [Lipid 158, heptadecan-9-yl 2-methyl-6-oxo-10-(6-oxo-6-(undecyloxy)hexyl)-7-oxa-2,5,10-triazaoctadecan-18-oate] | 0.2315 | 97.72 | 6.058 mV | 72% | 1.24E+06 | 1.37E+04 | 64% | 0% | 1.62E+07
CCCCCCCCCCCOC(=O)CCCCCN(CCCCCCCC(=O)OC(CCCCCCCC)CCCCCCCC)CCOC(=O)NCc1ncc[nH]1 [Lipid 159, heptadecan-9-yl 8-((2-((((1H-imidazol-2-yl)methyl)carbamoyl)oxy)ethyl)(6-oxo-6-(undecyloxy)hexyl)amino)octanoate] | 0.1754 | 57.86 | −5.631 mV | 84% | 8.41E+05 | 4.41E+04 | 92% | 90% | 1.95E+07
CCCCCCCCCCCOC(=O)CCCCCN(CCCCCCCC(=O)OC(CCCCCCCC)CCCCCCCC)CCOC(=O)NCCN1CCOCC1 [Lipid 161] | 0.08727 | 58.97 | −10.23 mV | 75% | 4.62E+04 | 6.74E+03 | 95% | 81% | 1.88E+07
CCCCCCCCCCCOC(=O)CCCCCN(CCCCCCCC(=O)OC(CCCCCCCC)CCCCCCCC)CCOC(=O)NCCCN(C)C [Lipid 162] | 0.3875 | 86.23 | 14.91 mV | 76% | 4.27E+05 | 3.76E+03 | 83% | 86% | 1.01E+06
CCCCCCCCCCCOC(=O)CCCCCN(CCCCCCCC(=O)OC(CCCCCCCC)CCCCCCCC)CCOC(=O)NCCCn1ccnc1 [Lipid 163] | 0.1586 | 61.87 | −3.271 mV | 79% | 5.77E+04 | 3.32E+03 | 92% | 88% | 7.96E+06
CCCCCCCCCCCOC(=O)CCCCCN(CCCCCCCC(=O)OC(CCCCCCCC)CCCCCCCC)CCOC(=O)NCCN1CCCC1 [Lipid 164] | 0.2218 | 76.41 | 3.42 mV | 75% | 3.92E+06 | 9.56E+04 | 74% | 86% | 7.11E+07
CCCCCCCCCCC(CCCCCCCC)COC(=O)CCCCCN(CCCCCC(=O)OCC(CCCCCCCC)CCCCCCCCCC)CCOC(=O)NCCCN(C)C (stereo not drawn) [Lipid 166] | 0.2013 | 71.24 | 4.157 mV | 78% | 2.17E+07 | 1.48E+06 | 22% | 12% | 6.43E+05
CCCCCCCCCCC(CCCCCCCC)COC(=O)CCCCCN(CCCCCC(=O)OCC(CCCCCCCC)CCCCCCCCCC)CCOC(=O)NCCCn1ccnc1 (stereo not drawn) [Lipid 167] | 0.0668 | 61.26 | −3.412 mV | 82% | 8.85E+04 | 2.79E+04 | 102% | 90% | 9.22E+06
CCCCCCCCCCC(CCCCCCCC)COC(=O)CCCCCN(CCCCCC(=O)OCC(CCCCCCCC)CCCCCCCCCC)CCOC(=O)NCc1ncc[nH]1 (stereo not drawn) [Lipid 171] | 0.1297 | 55.9 | −5.824 mV | 77% | 3.04E+05 | 2.44E+05 | 97% | 88% | 5.09E+07
CCCCCCCCCCC(CCCCCCCC)COC(=O)CCCCCN(CCCCCC(=O)OCC(CCCCCCCC)CCCCCCCCCC)CCOC(=O)NCCCN(CC)CC (stereo not drawn) [Lipid 172] | 0.2521 | 67.53 | 1.36 mV | 83% | 1.12E+07 | 5.83E+05 | 41% | 90% | 2.14E+07
CCCCCCCCCCC(CCCCCCCC)COC(=O)CCCCCN(CCCCCC(=O)OCC(CCCCCCCC)CCCCCCCCCC)CCOC(=O)NCCN1CCN(C)CC1 (stereo not drawn) [Lipid 173] | 0.3423 | 73.65 | −0.5735 mV | 82% | 3.32E+07 | 9.48E+05 | 57% | 90% | 3.45E+07
CCCCCCCCCCC(CCCCCCCC)COC(=O)CCCCCN(CCCCCC(=O)OCC(CCCCCCCC)CCCCCCCCCC)CCOC(=O)NCCN1CCOCC1 (stereo not drawn) [Lipid 174] | 0.0911 | 57.29 | −4.35 mV | 89% | 1.56E+05 | 1.30E+04 | 89% | 92% | 5.15E+07
CCCCCCCCCC(=O)OCCCCCCCN(CCCCCCCOC(=O)CCCCCCCCC)CCOC(=O)NCCN1CCN(C)CC1 [Lipid 178] | 0.1534 | 61.85 | 16.19 mV | 95% | 6.17E+04 | 1.31E+03 | 99% | 92% | 1.31E+06
CCCCC/C=C\CCOC(=O)CCCCCN(CCCCCCCCOC(=O)C(CCCCCC)CCCCCCCC)CCOC(=O)NCc1ncc[nH]1 (stereo not drawn) [Lipid 185] | 0.102 | 69.89 | −1.137 mV | 88% | 9.12E+03 | 5.29E+04 | 90% | 85% | 1.22E+08
CCCCC/C=C\CCOC(=O)CCCCCN(CCCCCCCCOC(=O)C(CCCCCC)CCCCCCCC)CCOC(=O)NCCCN(CC)CC (stereo not drawn) [Lipid 186] | 0.4618 | 122.7 | 14.31 mV | 90% | 1.51E+05 | 2.82E+02 | 88% | 0% | 2.96E+06
CCCCC/C=C\CCOC(=O)CCCCCN(CCCCCCCCOC(=O)C(CCCCCC)CCCCCCCC)CCOC(=O)NCCN1CCN(C)CC1 (stereo not drawn) [Lipid 187] | 0.277 | 65.71 | 8.983 mV | 92% | 3.27E+05 | 7.47E+04 | 93% | 0% | 2.29E+06
CCCCC/C=C\CCOC(=O)CCCCCN(CCCCCCCCOC(=O)C(CCCCCC)CCCCCCCC)CCOC(=O)NCCN1CCOCC1 (stereo not drawn) [Lipid 188] | 0.07877 | 73.74 | −9.419 mV | 88% | 1.12E+04 | 2.82E+03 | 96% | 87% | 2.17E+07
CCCCC/C=C\CCOC(=O)CCCCCN(CCCCCCCCOC(=O)C(CCCCCC)CCCCCCCC)CCOC(=O)NCCN(C)C (stereo not drawn) [Lipid 189] | 0.4058 | 84.04 | 18.88 mV | 95% | 9.85E+04 | 2.71E+02 | 89% | 1% | 1.79E+06
